Measured values taken from patent publication US9561228B2 (Celgene Avilomics Research, Inc., priority 2013, dated 2017).
pEC50: −log10 of the molar value.

tested on: ERK1/2 phosphorylation of p90RSK in A375 cells; experiment: Detection of total and phosphor-RSK by MSD ELISA (A375); assay type: cell-based; conditions: Homo sapiens, A-375, read-out: ERK1/ERK2 PRSK A375 EC50
Outline: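 Electrochemiluminescent MSD ELISA: common RSK capture antibody, with pRSK Ser380 or total RSK detection antibodies plus SulfoTag secondaries. Samples were lysates of A375 cells exposed to compound for 2 h at 37° C after overnight culture in 0.1% FBS DMEM.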

SMILES | pEC50
C=CC(=O)Nc1ccccc1Nc1nc(Nc2cc(C(N)=O)ccc2C)ncc1C(F)(F)F [Compound I-68, 3-(4-(2-Acrylamidophenylamino)-5-(trifluoromethyl)pyrimidin-2-ylamino)-4-methylbenzamide] | 6.30 to 7.00
C=CC(=O)Nc1ccccc1Nc1nc(Nc2ccnnc2)ncc1C(F)(F)F [Compound I-293, N-(2-((2-(Pyridazin-4-ylamino)-5-(trifluoromethyl)pyrimidin-4-yl)amino)phenyl)acrylamide] | 6.00 to 6.30
C=CC(=O)Nc1ccccc1Nc1nc(Nc2cc(OC)nc(N3CCCCC3)c2)ncc1C(F)(F)F [Compound I-282, N-(2-((2-((2-Methoxy-6-(piperidin-1-yl)pyridin-4-yl)amino)-5-(trifluoromethyl)pyrimidin-4-yl)amino)phenyl)acrylamide] | > 7.00
C=CC(=O)Nc1ccccc1Nc1nc(Nc2cc(N[C@H]3CC[C@@H](O)CC3)nc(OC)c2)ncc1C(F)(F)F [Compound I-292] | > 7.00
C=CC(=O)Nc1cc(C)ccc1Nc1nc(Nc2cc(C)nc(OC)c2)ncc1C(F)(F)F [Compound I-295, N-(2-((2-((2-methoxy-6-methylpyridin-4-yl)amino)-5-(trifluoromethyl)pyrimidin-4-yl)amino)-5-methylphenyl)acrylamide] | > 7.00
C=CS(=O)(=O)Nc1cc(C)ccc1Nc1nc(Nc2cc(OC)ncc2C)ncc1C(F)(F)F [Compound I-333, N-(2-((2-((2-methoxy-5-methylpyridin-4-yl)amino)-5-(trifluoromethyl)pyrimidin-4-yl)amino)-5-methylphenyl)ethenesulfonamide] | 6.30 to 7.00
C=CC(=O)Nc1cc(C(F)(F)F)ccc1Nc1nc(Nc2cc(OC)ncc2C)ncc1C(F)(F)F [Compound I-323, N-(2-((2-((2-methoxy-5-methylpyridin-4-yl)amino)-5-(trifluoromethyl)pyrimidin-4-yl)amino)-5-(trifluoromethyl)phenyl)acrylamide] | > 7.00

tested on: ERK1/ERK2; experiment: Measurement of Erk occupancy with biotinylated covalent probe I-299 (HT-29); assay type: cell-based; conditions: HT-29 cells
Experimental: Measurement of Erk Occupancy with Biotinylated Covalent Probe
This experiment measured occupancy of the ERK1/ERK2 target by compounds according to the invention. This experiment was conducted using the Mesoscale Discovery test kit (Cat. # N45107B). One day before the assay, cells were split and added at 50,000 cells per well to a flat-bottom 96 well plate in 200 μl of growth medium. The next day, the medium was discarded, 100 μl medium containing test compound was added, and the plate was incubated at 37° C. for 120 minutes. The plate was rinsed once with PBS, and 50 μl lysis buffer with test compound was added. The plate was incubated at 4° C. for 30 min, and 30 μl of lysate was transferred to a plate to capture total and phosphor-Erk. Biotinylated probe 1-299 was diluted in lysis buffer and added to each well to a final concentration of 0.2 μM. The plate was incubated for 2 hr under constant shaking at room temperature. The plate was washed 3 times with MSD wash buffer. To detect the biotinylated probe bonding, tagged streptavidin was added (Mesoscale Discovery, Cat. # R32AD-1) at 1 μg/ml, 25 μl/well, followed by a 60 min incubation under shaking. The plate was washed 3 times, 150 μl MSD Read Buffer (Mesoscale Discovery, Cat. R61TX) was added and the plate was read in a plate reader manufactured by MSD. Percent occupancy by test compound at Erk was calculated by comparing the chemiluminescence readings from treated cells as compared to the chemiluminescence readings in untreated controls (which are defined as 100% probe bonding or 0% test compound occupancy). The amount of covalent probe signal divided by the amount of ERK signal for samples with no test compound treatment represents the maximum probe signal (MPS). In samples treated with test compound prior to covalent probe, the ratio of probe signal to ERK signal (the test probe signal, TPS) was reduced by the degree of target occupancy by the test compound which blocks covalent probe binding. The difference between the MPS and the TPS, divided by the MPS gave the target occupancy by the test compound. This ratio was then expressed as a percent occupancy. Results from this assay are provided in Table A below under the column “Occupancy EC50 (nM) HT-29.”

SMILES | pEC50
C=CC(=O)Nc1ccccc1Nc1nc(Nc2cc(C(N)=O)ccc2C)ncc1C(F)(F)F [Compound I-68, 3-(4-(2-Acrylamidophenylamino)-5-(trifluoromethyl)pyrimidin-2-ylamino)-4-methylbenzamide] | > 7.00
